According to patent US7091174B2, “Caloxins” (McMaster University, priority 2000, dated 2006):
Ends that are not written are not given here.

Key:
pig coronary artery = test: Endothelium dependent relaxation of pig coronary artery pre-contracted with KCl; conditions: pig coronary artery precontracted with KCl, FIG. 3
[1] = biological target: T1, erythrocyte leaky ghost Ca^2+—Mg^2+-ATPase (PM Ca^2+ pump) (Homo sapiens, UniProt P23634); test: Ca2+-Mg2+-ATPase assay with human erythrocyte leaky ghosts (fluorometric coupled enzyme assay); type: biochemical
T1 construct: Human erythrocyte leaky ghosts (Jarrett et al. (1978)) were assayed for ATPase; from tissue; host or cells: human erythrocyte leaky ghosts prepared from human blood
Experimental: FIG. 1A is a graph showing Ca^2+—Mg^2+-ATPhase inhibition by caloxin 2A1. Human erythrocyte leaky ghosts (Jarrett et al. (1978)) were assayed for ATPase as described previously (Niggli et al. (1981); Grover (1988)) but by fluorometry. The drawn curve is from a total of 32 data points. Error bars where shown are SEM values.
The present invention includes all caloxins isolated according to the method of the invention. Caloxins can be tested for their ability to inhibit the plasma membrane Ca^2+-pump using various assays. In particular, PM Ca^2+ pump is a Ca^2+—Mg^2+-ATPase that binds ATP in presence of Ca^2+ to form an acylphosphate which is then hydrolysed upon Ca^2+ translocation (Guerini (1998)). The effect of caloxins on PM Ca^2+ pump can be tested in two assays using human erythrocyte leaky ghosts: Ca^2+—Mg^2+-ATPase and acylphosphate formation. In particular the inventors have shown that caloxin 2A-1 inhibits erythrocyte leaky ghost Ca^2+—Mg^2+-ATPase (FIG. 1A) producing 50% inhibition at 0.4±0.1 mM. Caloxin 2A-1 inhibits the PM Ca^2+-pump selectively. At a concentration of 0.9 mM, caloxin 2A1 inhibits the erythrocyte ghost Ca^2+—Mg^2+-ATPase by 78±4% but with no effect on Mg^2+-ATPase or Na^+—K^+-ATPase in the ghosts or the Ca^2+—Mg^2+-ATPase in skeletal muscle sarcoplasmic reticulum (FIG. 1B). The inhibition is selective to caloxin 2A1 because 0.9 mM of a peptide with randomized caloxin 2A1 sequence (SWSSFPGSGGVSNPN-amide, SEQ.ID.NO.5) has no effect (FIG. 1B) neither does the large mixture of peptides contained in the casein pancreatic hydrolysate (data not shown). Thus, caloxin 2A1 is selective in that it inhibits the PM Ca^2+-pump and not other ATPases. […] Caloxin 2A1 was selected by binding to a PMCA1 sequence but it inhibits PM Ca^2+-pump in erythrocyte ghosts which express mainly PMCA4. This finding is consistent with the high degree of similarity between sequences of PMCA genes in this domain (Swiss Protein Bank accession numbers P20020, Q01814, Q16720, P23634) although we have not ruled out that caloxin 2A1 has different affinities for each isoform. The second PM Ca^2+-pump assay consisted of Ca^2+-dependent formation of the acid stable 140 kDa acylphosphate intermediate from ^32P-γ-ATP in erythrocyte leaky ghosts.
1.2. Ca^2+—Mg^2+-ATPase assay with human erythrocyte leaky ghosts: A major hurdle was the lack of an appropriate assay. The difficulties were: (a) calmodulin needed for the PM Ca^2+ pump activity binds on the cytosolic surface of the pump protein and caloxins by definition bind on the outside surface, (b) most tissues have very active ecto-Mg^2+-ATPase and an ER Ca^2+—Mg^2+-ATPase—the latter can be inhibited by thapsigargin but the former poses a major problem. Erythrocyte ghosts contain mostly plasma membrane. Finally we used human erythrocyte ghosts which have low ecto-Mg^2+-ATPase. Fluorometric coupled enzyme assays are more sensitive. We purchased microcuvettes (100–150 μl) for our fluorometer (SPEX Fluorolog 112) with a heated chamber (37° C.) and made the appropriate cuvette adapter. We first monitor basal Mg^2+-ATPhase as slope for the disappearance of NADH fluorescence (ex=340, em=440 nm) in a solution containing 0.2–0.4 mg ghost protein, 0.1 mM ouabain, 100 mM NaCl, 20 mM KCl, 6 mM MgCl2, 30 mM imidazole-HCl pH 7.0, 0.5 mM EDTA, 0.6 mM NADH, 1 mM pyruvate enol phosphate, excess pyruvate kinase-[…], 0.5 mM ATP, 0.5 mM EGTA and 4 ug/ml calmodulin. […] Na^+—K^+-ATPase can be monitored without CaCl2 and ouabain.

[2] = biological target: T2, PM Ca^2+-pump 140 kDa acylphosphate intermediate (Homo sapiens, UniProt P23634); test: Ca2+-dependent acylphosphate formation from 32P-gamma-ATP in erythrocyte leaky ghosts; type: biochemical; conditions: 3.4 mM peptide, FIG. 1C
T2 construct: from tissue; host or cells: human erythrocyte leaky ghosts
T2 sequence (P23634 1-1205 isoform P23634-6): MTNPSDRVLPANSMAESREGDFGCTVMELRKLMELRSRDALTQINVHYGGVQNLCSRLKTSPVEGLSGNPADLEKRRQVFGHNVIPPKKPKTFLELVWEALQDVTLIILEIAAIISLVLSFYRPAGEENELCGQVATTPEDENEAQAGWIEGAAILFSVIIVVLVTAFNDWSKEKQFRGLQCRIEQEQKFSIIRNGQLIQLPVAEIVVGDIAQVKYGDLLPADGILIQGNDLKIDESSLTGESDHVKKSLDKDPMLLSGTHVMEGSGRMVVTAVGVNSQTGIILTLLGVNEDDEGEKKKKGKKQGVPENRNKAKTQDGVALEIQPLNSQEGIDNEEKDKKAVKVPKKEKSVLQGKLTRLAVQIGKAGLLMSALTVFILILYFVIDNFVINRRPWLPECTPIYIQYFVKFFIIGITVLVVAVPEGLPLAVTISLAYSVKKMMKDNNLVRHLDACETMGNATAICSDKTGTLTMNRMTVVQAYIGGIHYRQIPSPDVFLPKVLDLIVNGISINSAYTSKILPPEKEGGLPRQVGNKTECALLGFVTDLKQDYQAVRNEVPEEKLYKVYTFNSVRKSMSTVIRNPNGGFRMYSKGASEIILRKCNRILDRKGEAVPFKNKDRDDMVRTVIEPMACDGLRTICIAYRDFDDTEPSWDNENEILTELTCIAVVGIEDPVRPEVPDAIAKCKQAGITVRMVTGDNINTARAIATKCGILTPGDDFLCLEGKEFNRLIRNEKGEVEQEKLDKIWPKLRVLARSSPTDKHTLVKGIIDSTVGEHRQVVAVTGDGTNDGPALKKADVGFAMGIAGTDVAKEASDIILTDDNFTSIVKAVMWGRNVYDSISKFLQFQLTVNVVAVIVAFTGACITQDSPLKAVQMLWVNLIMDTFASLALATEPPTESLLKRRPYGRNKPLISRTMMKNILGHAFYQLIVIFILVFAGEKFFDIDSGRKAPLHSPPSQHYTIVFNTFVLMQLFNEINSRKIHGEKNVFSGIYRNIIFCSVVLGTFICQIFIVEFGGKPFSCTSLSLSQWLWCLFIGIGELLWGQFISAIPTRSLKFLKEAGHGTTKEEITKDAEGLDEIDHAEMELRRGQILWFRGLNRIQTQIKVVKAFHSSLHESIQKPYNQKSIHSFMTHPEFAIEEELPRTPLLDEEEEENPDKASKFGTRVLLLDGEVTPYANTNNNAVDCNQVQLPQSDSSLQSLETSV
Experimental: FIG. 1C is gel showing acylphosphate formation with 3.4 mM caloxin 2A1 or a random peptide. The acylphosphate reaction was carried out and samples analyzed by acid gel electrophoresis as previously described (Grover et al. (1988); Wuytack et al. (1984)). EGTA=1 mM, and CaCl2=0.05 mM.
(§1) The present invention includes all caloxins isolated according to the method of the invention. Caloxins can be tested for their ability to inhibit the plasma membrane Ca^2+-pump using various assays. In particular, PM Ca^2+ pump is a Ca^2+—Mg^2+-ATPase that binds ATP in presence of Ca^2+ to form an acylphosphate which is then hydrolysed upon Ca^2+ translocation (Guerini (1998)). The effect of caloxins on PM Ca^2+ pump can be tested in two assays using human erythrocyte leaky ghosts: Ca^2+—Mg^2+-ATPase and acylphosphate formation. In particular the inventors have shown that caloxin 2A-1 inhibits erythrocyte leaky ghost Ca^2+—Mg^2+-ATPase (FIG. 1A) producing 50% inhibition at 0.4±0.1 mM. Caloxin 2A-1 inhibits the PM Ca^2+-pump selectively. At a concentration of 0.9 mM, caloxin 2A1 inhibits the erythrocyte ghost Ca^2+—Mg^2+-ATPase by 78±4% but with no effect on Mg^2+-ATPase or Na^+—K^+-ATPase in the ghosts or the Ca^2+—Mg^2+-ATPase in skeletal muscle sarcoplasmic reticulum (FIG. 1B). […]

PMCA2b = test: Ca2+-Mg2+-ATPase activity in microsomes from SF9 cells expressing PMCA2; type: biochemical; conditions: 1.87 mM; two experiments
Description: (§2) PM Ca^2+-pump isoforms are encoded by 4 different genes. The inventors determined the effects of caloxin 2A1 on different isoforms. Cos M6 cells were transfected with this DNA using Fugene (purchased from Roche). Microsomes from SF9 cells expressing PMCA2 were a gift from Dr. A. Filoteo.
(§3) PMCA4 plasmid was transfected into COS-M6 cells. Thirty six to 48 hr later, microsomes were made from these cells and overexpression of the protein was confirmed using Western Blot. The Ca^2+—Mg^2+-ATPase activity in the microsomes was determined. The assay solutions included the following additional reagents: 0.05% Triton X-100, 5 mM sodium azide and 10 uM cyclopiazonic acid. Results: In a total of 22 determinations, the inhibition produced by 0.46,0.94 and 1.87 mM caloxin 2A1 on PMCA4 was 29, 47 and 58%, respectively.

PMCA4 = biological target: T3, PMCA4 (Homo sapiens, UniProt P23634); test: Ca2+-Mg2+-ATPase activity in microsomes of COS-M6 cells transfected with PMCA4; type: biochemical; conditions: read-out: inhibition of PMCA4 Ca^2+—Mg^2+-ATPase
T3 construct: expressed in transfected cells; host or cells: COS-M6 cells, microsomes
T3 sequence (P23634 1-1241): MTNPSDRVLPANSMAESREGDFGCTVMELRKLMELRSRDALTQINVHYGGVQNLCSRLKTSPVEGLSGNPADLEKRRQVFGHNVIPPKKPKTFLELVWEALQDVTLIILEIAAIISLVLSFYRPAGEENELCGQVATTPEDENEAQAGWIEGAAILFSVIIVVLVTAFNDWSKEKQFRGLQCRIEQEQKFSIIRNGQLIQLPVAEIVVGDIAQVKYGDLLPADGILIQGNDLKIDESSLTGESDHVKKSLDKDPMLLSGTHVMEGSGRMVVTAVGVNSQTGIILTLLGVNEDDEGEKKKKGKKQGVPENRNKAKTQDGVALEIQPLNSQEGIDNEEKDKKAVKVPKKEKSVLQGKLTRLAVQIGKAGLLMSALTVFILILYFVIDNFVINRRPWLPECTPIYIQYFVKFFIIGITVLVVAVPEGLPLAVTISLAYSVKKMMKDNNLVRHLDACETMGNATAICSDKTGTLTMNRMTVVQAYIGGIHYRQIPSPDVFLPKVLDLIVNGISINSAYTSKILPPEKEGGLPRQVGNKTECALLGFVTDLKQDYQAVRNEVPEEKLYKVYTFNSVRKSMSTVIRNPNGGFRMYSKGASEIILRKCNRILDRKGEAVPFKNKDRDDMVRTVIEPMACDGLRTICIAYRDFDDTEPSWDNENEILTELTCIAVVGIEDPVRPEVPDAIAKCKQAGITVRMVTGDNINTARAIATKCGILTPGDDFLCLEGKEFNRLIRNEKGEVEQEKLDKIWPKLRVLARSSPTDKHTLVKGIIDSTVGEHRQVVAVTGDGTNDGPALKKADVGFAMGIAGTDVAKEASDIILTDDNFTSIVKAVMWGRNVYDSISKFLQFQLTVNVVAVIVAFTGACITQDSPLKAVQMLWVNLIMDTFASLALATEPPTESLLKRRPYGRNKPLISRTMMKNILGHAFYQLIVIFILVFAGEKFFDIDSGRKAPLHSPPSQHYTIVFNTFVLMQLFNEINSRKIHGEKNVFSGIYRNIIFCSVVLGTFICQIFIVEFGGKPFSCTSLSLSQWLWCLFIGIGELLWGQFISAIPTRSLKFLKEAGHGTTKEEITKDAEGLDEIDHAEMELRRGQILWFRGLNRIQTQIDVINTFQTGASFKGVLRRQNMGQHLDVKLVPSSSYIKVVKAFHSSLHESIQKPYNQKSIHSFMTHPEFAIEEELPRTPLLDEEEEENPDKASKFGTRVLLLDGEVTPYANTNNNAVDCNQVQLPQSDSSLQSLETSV
Description: as §2, §3

[3] = system: Mg^2+-ATPase in the ghosts; test: Mg2+-ATPase in erythrocyte ghosts; type: biochemical, human; conditions: 0.9 mM
Description: (§4) FIG. 1B is a bar graph showing the selectivity of caloxin 2A1 for inhibition of PM Ca^2+—Mg^2+-ATPase using caloxin 2A1 or a random peptide (RP). G=ghosts and S=skeletal muscle sarcoplasmic reticulum, Type of ATPhase activity monitored is shown as Ca^2+—Mg^2+, Mg^2+ or Na^+—K^+-ATPase.
(§5) The present invention includes all caloxins isolated according to the method of the invention. Caloxins can be tested for their ability to inhibit the plasma membrane Ca^2+-pump using various assays. In particular, PM Ca^2+ pump is a Ca^2+—Mg^2+-ATPase that binds ATP in presence of Ca^2+ to form an acylphosphate which is then hydrolysed upon Ca^2+ translocation (Guerini (1998)). The effect of caloxins on PM Ca^2+ pump can be tested in two assays using human erythrocyte leaky ghosts: Ca^2+—Mg^2+-ATPase and acylphosphate formation. […]
(§6) 1.2. […] We first monitor basal Mg^2+-ATPhase as slope for the disappearance of NADH fluorescence (ex=340, em=440 nm) in a solution containing 0.2–0.4 mg ghost protein, 0.1 mM ouabain, 100 mM NaCl, 20 mM KCl, 6 mM MgCl2, 30 mM imidazole-HCl pH 7.0, 0.5 mM EDTA, 0.6 mM NADH, 1 mM pyruvate enol phosphate, excess pyruvate kinase-[…], 0.5 mM ATP, 0.5 mM EGTA and 4 ug/ml calmodulin. […] Na^+—K^+-ATPase can be monitored without CaCl2 and ouabain.

[4] = system: T4, Ca^2+—Mg^2+-ATPase in skeletal muscle sarcoplasmic reticulum; test: Ca2+-Mg2+-ATPase in skeletal muscle sarcoplasmic reticulum; type: biochemical; conditions: 0.9 mM
T4 construct: G=ghosts and S=skeletal muscle sarcoplasmic reticulum; from tissue; host or cells: skeletal muscle sarcoplasmic reticulum
T4 sequence (O14983 whole entry): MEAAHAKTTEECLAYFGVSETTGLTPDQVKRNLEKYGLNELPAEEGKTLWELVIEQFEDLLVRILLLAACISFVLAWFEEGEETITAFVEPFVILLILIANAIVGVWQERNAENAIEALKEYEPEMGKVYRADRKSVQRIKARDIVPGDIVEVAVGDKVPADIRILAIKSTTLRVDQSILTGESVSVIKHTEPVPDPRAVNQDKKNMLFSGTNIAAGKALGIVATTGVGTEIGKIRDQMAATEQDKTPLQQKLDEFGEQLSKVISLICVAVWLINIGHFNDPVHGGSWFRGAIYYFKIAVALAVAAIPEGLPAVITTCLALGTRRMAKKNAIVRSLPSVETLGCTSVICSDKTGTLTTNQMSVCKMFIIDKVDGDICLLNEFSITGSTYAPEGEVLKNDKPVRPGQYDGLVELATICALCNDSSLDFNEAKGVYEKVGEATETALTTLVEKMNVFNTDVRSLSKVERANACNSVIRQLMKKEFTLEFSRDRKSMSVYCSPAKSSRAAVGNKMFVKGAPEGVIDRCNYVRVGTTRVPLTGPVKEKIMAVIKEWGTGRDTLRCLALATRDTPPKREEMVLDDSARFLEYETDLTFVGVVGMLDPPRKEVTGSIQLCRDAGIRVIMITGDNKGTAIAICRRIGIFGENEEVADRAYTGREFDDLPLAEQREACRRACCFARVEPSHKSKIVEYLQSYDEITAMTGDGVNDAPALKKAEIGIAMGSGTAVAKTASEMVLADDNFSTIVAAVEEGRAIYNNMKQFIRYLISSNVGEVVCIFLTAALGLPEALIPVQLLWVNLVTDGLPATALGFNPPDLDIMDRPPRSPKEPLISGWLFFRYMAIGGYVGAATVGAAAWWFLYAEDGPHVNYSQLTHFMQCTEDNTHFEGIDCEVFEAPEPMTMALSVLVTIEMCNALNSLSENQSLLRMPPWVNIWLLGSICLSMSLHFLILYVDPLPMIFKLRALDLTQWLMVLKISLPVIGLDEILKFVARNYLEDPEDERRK
Description: as §4, §1

[5] = system: Na^+—K^+-ATPase in the ghosts; test: Na+-K+-ATPase in erythrocyte ghosts; type: biochemical, human; conditions: 0.9 mM
Description: as §4, §5, §6

rat aortic rings = test: Endothelium dependent relaxation of rat aorta rings precontracted with phenylephrine; conditions: precontracted with 0.5 μM phenylephrine, 0.34 mM caloxin 2A1, reversed by L-NAME
Experimental: Rat aorta rings were hung in organ bath as previously described. The rings were contracted with submaximum (0.5 μM) phenylephrine before adding 0.34 mM caloxin 2A1 and 0.1 mM L-nitroarginylmethyl ester) as shown. Each experiment was replicated at least four times.
Inhibiting the PM Ca^2+ pump in vascular endothelium should increase cytosolic Ca^2+, thereby activating endothelial nitric oxide synthase to relax arteries (Rees et al. (1990); Sato et al. (1990)). […] Thus caloxin 2A1 produced the biological effect in the endothelium which was expected from its inhibiting PM Ca^2+-pump.
1.3. […] We anesthetized a rats by methoxyfluorane (Metofane) inhalation and removed its thoracic aorta as 3 mm rings. These tissues relax to 1 μM carbachol after they have been contracted with phenylephrine (0.5 to 2 μM). We initially tried to do these experiments in Na^+-free solution but the tissues gave very poor contractions to phenylephrine. In Na^+-free solution, the tissues contracted to 20–80 mM KCl but relaxation with carbachol was poor. We reverted to using phenylephrine but in Na^+-containing Krebs' solution.

Substance: Acetyl-DSHINNEPSRRRGGGK (Ac-DSHINNEPSRRRGGGK; listed as Homo sapiens) [caloxin 3A1, peptide isolated by phage display screening against PMCA874]
- endothelium dependent relaxation of coronary arteries (pig coronary artery): endothelium dependent relaxation
- endothelium dependent relaxation of coronary arteries (pig coronary artery; listed as Caloxin 3A1): produces an endothelium dependent relaxation
- effect on erythrocyte ghost Ca^2+—Mg^2+-ATPase (in words) ([1]; concentration not given): inhibits

Substance: SWSSFPGSGGVSNPN-amide (SWSSFPGSGGVSNPN-NH2; listed as Homo sapiens) [randomized peptide, reference compound]
- inhibition of acylphosphate formation [2]: does not
- effect on erythrocyte ghost Ca^2+—Mg^2+-ATPase (in words) ([1]; 0.9 mM peptide, FIG. 1B): no effect

Substance: VSNSNWPSFPSSGGG-NH2 [caloxin 2A1, VSNSNWPSFPSSGGG-amide]
- average inhibition of PMCA2b (PMCA2b): 46%
- inhibition of acylphosphate formation [2]: inhibits the acylphosphate formation
- inhibition at 460 µM (PMCA4; 0.46 mM): 29%
- inhibition at 940 µM (PMCA4; 0.94 mM): 47%
- inhibition at 1870 µM (PMCA4; 1.87 mM): 58%
- effect on Mg^2+-ATPase in the ghosts [3]: no effect
- effect on Ca^2+—Mg^2+-ATPase in skeletal muscle sarcoplasmic reticulum [4]: no effect
- effect on Na^+—K^+-ATPase in the ghosts [5]: no effect
- inhibition of erythrocyte ghost Ca^2+—Mg^2+-ATPase ([1]; 0.9 mM peptide): 78±4%
- effect on erythrocyte ghost Ca^2+—Mg^2+-ATPase (in words) ([1]; 0.9 mM peptide, FIG. 1B): significant (p<0.05) inhibition
- IC50 ([1]; human erythrocyte leaky ghosts, read-out: concentration producing 50% inhibition of erythrocyte leaky ghost Ca^2+—Mg^2+-ATPase): 400 ± 100 µM
- relaxation of rat aortic rings (rat aortic rings): produced a relaxation
- relaxation of rat aortic rings (rat aortic rings; listed as Caloxin 2A1): relaxed the aortic rings
